Target: T1, human FASN (Homo sapiens, UniProt P49327)
T1 construct: purified from SKBR3 cells using procedures modified from those in Jayakumar et al; endogenous in cells; host or cells: SKBR3 cells (ATCC); endogenous FASN purified in house by ammonium sulfate precipitation and mono Q chromatography
Test: FASN NADPH consumption assay
Assay type: biochemical
Conditions: IC50 class, FASN NADPH Consumption Assay (symbols without asterisk); human FASN purified from SKBR3 cells
Method: Human FASN protein (SEQ ID NO 1) was purified from SKBR3 cells using procedures modified from those in Jayakumar et al., PNAS (1995) 92:8695-8699. SKBR3 cells were obtained from ATCC and grown in DMEM high glucose medium supplemented with 10% FBS, 1 μg/mL bovine pancreas insulin, 100 U/mL penicillin and 100 μg/mL streptomycin. The confluent cells were trypsinized and washed three times with PBS buffer before frozen in liquid N2 and stored at −80° C. Frozen cells were thawed on ice and re-suspended in lysis buffer (25 mM Tris-HCl, pH 7.0, 15 mM NaCl, 1 mM EDTA, and 1 mM DTT) with protease inhibitors. The cells were lysed by sonication, and the cell debris was removed by centrifugation at 20,000 rpm for 30 min. To the supernatant, neutralized saturated ammonium sulfate solution was added to a final concentration of 35%. The solution was left on ice for 1 hr, and the precipitated proteins were harvested by centrifugation at 20,000 rpm for 30 min. The proteins were re-dissolved in lysis buffer without NaCl and loaded on a mono Q column. Bound proteins were eluted with a linear gradient of NaCl in lysis buffer. Each fraction was analyzed by SDS-PAGE and FASN NADPH consumption assay. The fractions containing FASN were pooled and concentrated to 2-3 mg/mL. Glycerol was added to 20%, and the protein was frozen in liquid N2 and stored at −80° C.
All chemicals were purchased from Sigma (St. Louis, Mo.). The procedures of NADPH consumption assay were similar to those described in Cox et al., PNAS (1983) 80:4233-4237. On a 96-well polypropylene microplate, dilution series (typical concentrations 60 nM-1.0 mM) of inhibitor compounds were prepared in DMSO, of which 4.0 μL each was transferred to a black polystyrene assay microplate and mixed with 36 μL FASN assay buffer (50 mM potassium phosphate, pH 7.0, 1.0 mM EDTA, 0.01% NP-40) plus 5.0 mM fresh DTT. FASN protein (40 μL 150 nM FASN) was added per well, and the microplate was incubated at 37° C. for 30 min. Enzyme activity measurement was initiated by addition of 20 μL 5× substrate mixture to final concentrations of 60 nM FASN, 2.4 nM-40 μM compound, 0.2 mM NADPH, 50 μM butyryl-CoA, 0.5 mM malonyl-CoA in 100 μL assay buffer plus 5.0 mM DTT and 4.0% DMSO. NADPH consumption was monitored kinetically by fluorescence (λEX=340 nm, λEm=460 nm) on an EnVision 2100 multilabel plate reader (Perkin Elmer, Waltham, Mass.). FASN enzyme activity (slope) in the presence of 4% DMSO was used as maximum control, whereas background (minimum control) was measured by omission of malonyl-CoA in the substrate mixture. Inhibition curves were fitted by a logistic function to yield IC50 values: […]

T1 sequence (P49327 whole entry): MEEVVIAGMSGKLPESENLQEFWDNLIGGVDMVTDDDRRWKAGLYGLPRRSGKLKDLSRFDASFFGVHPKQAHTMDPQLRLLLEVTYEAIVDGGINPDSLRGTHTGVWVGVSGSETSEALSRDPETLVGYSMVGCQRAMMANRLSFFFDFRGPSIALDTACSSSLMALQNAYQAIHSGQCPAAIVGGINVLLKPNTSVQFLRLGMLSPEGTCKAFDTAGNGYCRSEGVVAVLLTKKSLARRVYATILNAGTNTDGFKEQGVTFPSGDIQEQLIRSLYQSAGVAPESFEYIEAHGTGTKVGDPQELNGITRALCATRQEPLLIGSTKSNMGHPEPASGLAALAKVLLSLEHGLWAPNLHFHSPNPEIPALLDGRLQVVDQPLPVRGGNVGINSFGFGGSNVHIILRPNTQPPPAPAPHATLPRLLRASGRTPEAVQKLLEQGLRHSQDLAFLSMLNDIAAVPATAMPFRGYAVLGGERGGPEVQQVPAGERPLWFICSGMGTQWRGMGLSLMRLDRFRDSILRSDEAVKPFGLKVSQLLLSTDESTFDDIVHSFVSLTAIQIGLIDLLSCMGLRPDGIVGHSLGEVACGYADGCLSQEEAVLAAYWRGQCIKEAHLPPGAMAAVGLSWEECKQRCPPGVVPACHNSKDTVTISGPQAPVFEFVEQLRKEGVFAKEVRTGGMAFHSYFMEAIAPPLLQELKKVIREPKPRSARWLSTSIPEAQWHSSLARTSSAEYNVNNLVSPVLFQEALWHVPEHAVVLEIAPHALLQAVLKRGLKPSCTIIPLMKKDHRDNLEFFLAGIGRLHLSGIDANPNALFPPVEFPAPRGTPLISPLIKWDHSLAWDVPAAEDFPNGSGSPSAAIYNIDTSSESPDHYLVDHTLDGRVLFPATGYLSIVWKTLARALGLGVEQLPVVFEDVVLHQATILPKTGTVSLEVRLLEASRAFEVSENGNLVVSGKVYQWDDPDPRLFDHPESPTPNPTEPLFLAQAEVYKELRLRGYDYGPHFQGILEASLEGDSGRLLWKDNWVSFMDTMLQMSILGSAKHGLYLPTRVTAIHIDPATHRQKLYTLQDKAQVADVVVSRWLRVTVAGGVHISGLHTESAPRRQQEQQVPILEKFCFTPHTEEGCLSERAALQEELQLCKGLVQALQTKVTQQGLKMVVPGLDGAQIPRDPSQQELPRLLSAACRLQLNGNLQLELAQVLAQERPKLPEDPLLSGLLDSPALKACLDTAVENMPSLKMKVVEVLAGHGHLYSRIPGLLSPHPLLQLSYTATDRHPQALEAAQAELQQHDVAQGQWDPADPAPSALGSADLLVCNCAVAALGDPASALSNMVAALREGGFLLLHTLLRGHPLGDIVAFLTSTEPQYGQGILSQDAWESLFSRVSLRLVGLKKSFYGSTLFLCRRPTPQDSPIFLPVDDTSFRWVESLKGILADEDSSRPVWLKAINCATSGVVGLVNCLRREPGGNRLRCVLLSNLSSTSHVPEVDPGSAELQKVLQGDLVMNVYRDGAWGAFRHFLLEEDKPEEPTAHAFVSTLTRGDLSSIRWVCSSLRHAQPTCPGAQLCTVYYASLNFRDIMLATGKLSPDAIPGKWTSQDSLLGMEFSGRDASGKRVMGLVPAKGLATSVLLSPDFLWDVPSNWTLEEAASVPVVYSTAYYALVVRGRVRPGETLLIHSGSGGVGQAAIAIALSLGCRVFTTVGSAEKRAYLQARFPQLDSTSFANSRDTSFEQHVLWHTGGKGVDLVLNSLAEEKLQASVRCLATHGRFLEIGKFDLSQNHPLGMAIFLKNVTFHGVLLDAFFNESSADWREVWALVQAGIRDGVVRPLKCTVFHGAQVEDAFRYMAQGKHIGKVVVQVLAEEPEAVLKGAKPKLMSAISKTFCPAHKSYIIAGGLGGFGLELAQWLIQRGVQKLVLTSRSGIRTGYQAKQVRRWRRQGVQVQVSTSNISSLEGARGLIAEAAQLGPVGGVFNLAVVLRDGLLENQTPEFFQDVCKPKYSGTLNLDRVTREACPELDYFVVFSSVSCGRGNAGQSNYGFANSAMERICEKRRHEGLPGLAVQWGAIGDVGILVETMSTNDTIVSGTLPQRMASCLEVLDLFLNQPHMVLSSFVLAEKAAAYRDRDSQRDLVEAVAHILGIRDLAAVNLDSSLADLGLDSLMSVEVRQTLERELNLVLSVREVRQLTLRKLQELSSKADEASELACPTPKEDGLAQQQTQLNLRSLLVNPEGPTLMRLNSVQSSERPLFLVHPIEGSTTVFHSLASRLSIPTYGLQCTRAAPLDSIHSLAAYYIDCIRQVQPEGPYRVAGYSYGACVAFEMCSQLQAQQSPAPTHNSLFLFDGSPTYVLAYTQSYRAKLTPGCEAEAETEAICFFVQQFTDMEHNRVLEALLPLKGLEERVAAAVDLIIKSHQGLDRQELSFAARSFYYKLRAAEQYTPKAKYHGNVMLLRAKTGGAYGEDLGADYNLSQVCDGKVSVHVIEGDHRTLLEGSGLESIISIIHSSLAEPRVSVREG

| IC50 [µM] | SMILES |
| --- | --- |
| 0.5 to 1 | CCN(C(=O)n1cc(-c2ccccc2Cl)nn1)c1ccccc1 |
| 0.2 to 0.5 | CCN(C(=O)n1nnc(C2CCCCC2)c1C#N)c1ccccc1 |
| > 1 | C[C@@H]1[C@@H](NC(=O)c2c(-c3ccccc3Oc3ccccc3)nnn2C(=O)N2CCCC3CCCCC32)C[C@@H]2C[C@H]1C2(C)C (stereo partly shown) |
| 0.5 to 1 | CCOC(=O)c1c(-c2ccccc2Oc2ccccc2)nnn1C(=O)N1CCCC2CCCCC21 (stereo not shown) [ethyl 1-(decahydroquinoline-1-carbonyl)-4-(2-phenoxyphenyl)-1H-1,2,3-triazole-5-carboxylate] |
| < 0.2 | CCN(C(=O)n1nnc(-c2c(F)cccc2Cl)c1C#N)c1ccccc1F |
| > 1 | CC(=O)N1CCC(N(Cc2ccccc2)C(=O)n2nnc(-c3ccccc3Oc3ccccc3)c2C#N)CC1 |
| > 1 | CCN(C(=O)n1nncc1-c1ccccc1Cl)c1ccccc1F |
| 0.2 to 0.5 | C[C@H]1[C@H](NC(=O)c2ccccc2-c2nnn(C(=O)N3CCCC4CCCCC43)c2C#N)C[C@H]2C[C@@H]1C2(C)C (stereo partly shown) |
| > 1 | CCN(C(=O)n1nncc1-c1ccccc1Cl)c1ccccc1 |
| > 1 | CCN(C(=O)n1nnc2ccccc21)c1ccc(C(=O)O)cc1 |
| > 1 | CCN(C(=O)n1nncc1-c1ccccc1)C1CCCCC1 |
| < 0.2 | C[C@H](NC(=O)c1ccccc1-c1nnn(C(=O)N2CCCC3CCCCC32)c1C#N)c1ccccc1 (stereo partly shown) |
| > 1 | C[C@H]1[C@H](NC(=O)c2c(-c3ccccc3Oc3ccccc3)nnn2C(=O)N2CCCC3CCCCC32)C[C@H]2C[C@@H]1C2(C)C (stereo partly shown) |
| 0.5 to 1 | CCOC(=O)c1c(-c2ccccc2Oc2ccccc2)nnn1C(=O)N(CC)c1ccccc1 |
| 0.5 to 1 | CCN(C(=O)n1nnc2ccccc21)c1ccccc1F |
| < 0.2 | CCN(C(=O)n1nnc(-c2c(Cl)cccc2Cl)c1C#N)c1ccccc1 |

| IC50 [µM] | SMILES |
| --- | --- |
| > 1 | O=C(N1CCCC2CCCCC21)n1nnc2ccccc21 (stereo not shown) |
| < 0.2 | CCN(C(=O)n1nnc(-c2c(F)cccc2Cl)c1C#N)c1ccccc1 |
| > 1 | CC(C)(C)OC(=O)N1CCC(N(Cc2ccccc2)C(=O)n2nnc(-c3ccccc3Oc3ccccc3)c2C#N)CC1 |
| > 1 | CCOC(=O)c1c(C2CC3C=CC2C3)nnn1C(=O)N1CCCC2CCCCC21 (stereo not shown) |
| 0.2 to 0.5 | C[C@@H](NC(=O)c1ccccc1-c1nnn(C(=O)N2CCCC3CCCCC32)c1C#N)c1ccccc1 (stereo partly shown) |
| 0.5 to 1 | COC(=O)C1CCc2ccccc2N1C(=O)n1nnc(-c2ccccc2Oc2ccccc2)c1C#N (stereo not shown) |
| 0.2 to 0.5 | N#Cc1c(-c2c(Cl)cccc2Cl)nnn1C(=O)N1CCCC2CCCCC21 (stereo not shown) |
| < 0.2 | N#Cc1c(-c2ccccc2CCc2ccccc2)nnn1C(=O)N1CCCC2CCCCC21 (stereo not shown) |
| > 1 | CCN(C(=O)n1cc(-c2ccccc2)nn1)C1CCCCC1 |
| > 1 | CCN(C(=O)n1cc(-c2ccccc2Cl)nn1)c1ccccc1F |
| 0.5 to 1 | C[C@@H]1[C@@H](NC(=O)c2ccccc2-c2nnn(C(=O)N3CCCC4CCCCC43)c2C#N)C[C@@H]2C[C@H]1C2(C)C (stereo partly shown) |
| 0.5 to 1 | CCN(C(=O)n1nnc2ncccc21)c1ccccc1 |
| > 1 | O=C(N1CCCC2CCCCC21)n1nnc2ncccc21 (stereo not shown) |
| < 0.2 | CCN(C(=O)n1nnc(-c2ccccc2Oc2ccccc2)c1C#N)c1ccccc1 |
| 0.2 to 0.5 | N#Cc1c(-c2c(F)cccc2F)nnn1C(=O)N1CCCC2CCCCC21 (stereo not shown) |
| < 0.2 | CCN(C(=O)n1nnc(-c2c(F)cccc2F)c1C#N)c1ccccc1 |

Target: T1, human FASN
Test: FASN Scintillation Proximity Flashplate assay
Assay type: biochemical
Conditions: IC50 class, FASN Scintillation Proximity Flashplate Assay (symbols with asterisk); human FASN purified from SKBR3 cells
Method: Human FASN protein (SEQ ID NO 1) was purified from SKBR3 cells using procedures modified from those in Jayakumar et al., PNAS (1995) 92:8695-8699. SKBR3 cells were obtained from ATCC and grown in DMEM high glucose medium supplemented with 10% FBS, 1 μg/mL bovine pancreas insulin, 100 U/mL penicillin and 100 μg/mL streptomycin. The confluent cells were trypsinized and washed three times with PBS buffer before frozen in liquid N2 and stored at −80° C. Frozen cells were thawed on ice and re-suspended in lysis buffer (25 mM Tris-HCl, pH 7.0, 15 mM NaCl, 1 mM EDTA, and 1 mM DTT) with protease inhibitors. The cells were lysed by sonication, and the cell debris was removed by centrifugation at 20,000 rpm for 30 min. […] Each fraction was analyzed by SDS-PAGE and FASN NADPH consumption assay. […]
Acetyl-coenzyme A, malonyl-coenzyme A, NADPH, bovine gamma globulin, and orlistat were purchased from Sigma (St. Louis, Mo.). […] The plates were read in a Wallac 1450 Microbeta Plus liquid scintillation counter (Perkin Elmer, Waltham, Mass.), and counts per minute (CPM) were collected over 2 min. Each inhibitor well CPM was compared to the maximum FASN enzyme activity (Max) CPM and the background (Min) CPM, as measured by omission of FASN enzyme in the background well. % Inhibition values were calculated, and curves were fitted by a four-parameter logistic function to yield IC50 values: […]

| IC50 [µM] | SMILES |
| --- | --- |
| < 0.2 | CCN(C(=O)n1nnc(-c2ccccc2CCc2ccccc2)c1C#N)c1ccccc1 |
| < 0.2 | CC(C)N(C(=O)n1nnc(-c2c(F)cccc2F)c1C#N)c1cccc(C(=O)O)c1 [3-(5-cyano-4-(2,6-difluorophenyl)-N-isopropyl-1H-1,2,3-triazole-1-carboxamido)benzoic acid] |
